{"source": "patent US20080269338A1", "about": "“AQUEOUS SOLUTIONS CONTAINING CHLORAMINE WHICH ARE FREE FROM DI-AND TRICHLOROAMINE, AS WELL AS FROM AMMONIA” (priority 2007, published 2008)", "key": {"bacteria": {"tested_on": "bacteria", "assay": "Killing tests, bacterial strains in general", "format": "cell-based", "conditions": "preliminary experiments, without NCT", "method": "Microbicidal activity. […] The impact of ammonium chloride on the microbicidal activity of NCT could be confirmed in several bacterial strains (FIG. 4).\nBacterial strains, Staphylococcus aureus ATCC 25923 and 6538, Staphylococcus epidermidis ATCC 12228, Escherichia coli ATCC 11229, Proteus mirabilis ATCC 14153, Pseudomonas aeruginosa ATCC 27853, and a clinical isolate of […] deep-frozen for storage were grown overnight on tryptic soy agar (Merck, Darmstadt, Germany). Colonies from this agar were grown in tryptic soy broth (Merck, Darmstadt, Germany) at 37° C. overnight and washed twice with saline.\nKilling tests. Bacteria were diluted in buffered test solution to concentrations of 1×10^6 to 5×10^7 CFU/mL. Immediately and subsequent to different incubation times at room temperature, aliquots were removed, and NCT with or without ammonium chloride or plain monochloramine was inactivated by 10-fold dilution in 0.3% sodium thiosulfate. Aliquots (50 μL) of these solutions as well as of 100-fold further dilutions in saline were spread onto tryptic soy agar plates with an automatic spiral plater (Don Whitley Scientific Limited, West Yorkshire, UK) in duplicates allowing a detection limit of 200 CFU/mL. Plates were grown at 37° C., and CFU were counted after 24 and 48 hours. Controls without NCT were treated the same way."}, "[1]": {"assay": "Stability of active chlorine compound with ammonium salt in water (pH, oxidation capacity)", "format": "physicochemical"}, "[2]": {"assay": "Example 5: penetration through the human cornea (diffusion chamber)", "conditions": "room temperature", "method": "A human cornea was clamped in a specially designed chamber. The upper compartment was filled with the disinfectant, while the lower one contained the buffer solution. The system was equilibrated for 2, 4, and 6 hours at room temperature, and afterwards the oxidation capacity was determined in the buffer solution of the lower compartment."}, "[3]": {"conditions": "rabbit eye (Nagl et al.); cited from earlier work"}, "[4]": {"conditions": "human eye (Nagl et al.); cited from earlier work"}, "[5]": {"assay": "Example 2: stability of a pure monochloramine solution (UV spectrum)", "format": "physicochemical", "conditions": "three days storage in the refrigerator at 0-3° C.", "method": "A solution of 1 g each of N-chlorotaurine and ammonium chloride in 100 mL water was distilled in a rotavapor (water stream vacuum, water bath temperature 50° C.). The distillate contained, according to the UV spectrum, […] pure monochloramine (NH2Cl, absorption band at λmax=244 nm, A244=0.9812, d=0.1 cm, ε244=461.6 L mol^−1 cm^−1). After three days storage in the refrigerator at 0-3° C., the band at 244 disappeared, while two bands at 203 nm (A=1.146) and 294 nm (A0 0.148) appeared which are characteristic for the chromophor —NCl2. Gottardi et al., supra."}, "[6]": {"conditions": "with ammonium, 0.1 M phosphate buffer"}, "[7]": {"conditions": "with excess ammonium, no buffer"}}, "note": "Like-named read-outs stand apart in the source and are kept apart here."}
{"smiles": "Cl.N", "note": "[Ammonium chloride]", "values": [{"measurement": "Influence on viability", "setting": "bacteria", "result": "no influence on viability"}]}
{"smiles": "[Ca+2].[O-]Cl.[O-]Cl", "note": "[Calcium hypochlorite]", "values": [{"measurement": "Behaviour with ammonium compared with chloramine-T", "setting": "[1]", "result": "behave in the same manner"}]}
{"smiles": "O=S(=O)(O)CCNCl", "note": "[NCT, N-chlorotaurine]", "values": [{"measurement": "Diffused oxidation capacity, from the starting value in the upper compartment", "setting": "[2]; after 2 hours", "result": 1.3, "unit": "%"}, {"measurement": "Diffused oxidation capacity, from the starting value in the upper compartment", "setting": "[2]; after 4 hours", "result": 4.8, "unit": "%"}, {"measurement": "Diffused oxidation capacity, from the starting value in the upper compartment", "setting": "[2]; after 6 hours", "result": 25.4, "unit": "%"}, {"measurement": "Tolerability", "setting": "[3]", "result": "good tolerability"}, {"measurement": "Tolerability", "setting": "[4]", "result": "good tolerability"}]}
{"smiles": "Cc1ccc(S(=O)(=O)NCl)cc1.[Na]", "note": "[chloramine-T, N-chloro-4-toluenesulfonamide sodium]", "values": [{"measurement": "Loss of oxidation capacity within 1 hour", "setting": "[1]; [6]", "result": 90, "unit": "%"}, {"measurement": "pH within 2 hours", "setting": "[1]; [6]", "result": 6.3}, {"measurement": "pH, start", "setting": "[1]; [6]", "result": 7.0}, {"measurement": "pH within 8 minutes", "setting": "[1]; [7]", "result": 2.9}, {"measurement": "pH, start", "setting": "[1]; [7]", "result": 6.8}]}
{"smiles": "NCl", "note": "[monochloramine]", "values": [{"measurement": "Conversion of NH2Cl to NHCl2", "setting": "[5]", "result": "complete conversion of NH2Cl to NHCl2"}]}
{"smiles": "O=c1nc([O-])n(Cl)c(=O)n1Cl.[Na+]", "note": "[sodium dichloro-isocyanurate]", "values": [{"measurement": "Behaviour with ammonium compared with chloramine-T", "setting": "[1]", "result": "behave in the same manner"}]}
